The text below walks through data of patent publication US20100256357A1, “HETEROCYCLES USEFUL AS INHIBITORS OF CARBONIC ANHYDRASE” (Agouron Pharmaceuticals, Inc., priority 2006, published 2010).

The target in one assay is T1, human CA-IV (Homo sapiens, UniProt P22748).
T1 construct: made in house; host or cells: Escherichia coli BL21(DE3)
Kind of assay: Carbonic Anhydrase-IV (CA-IV) Fluorescence Polarization Assay-IC50 Determination. Format: binding. Put shortly:
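Recombinant CA-IV expressed with 800 uM ZnCl2, purified by SP-Sepharose and Sephacryl S-100 in 25 mM Tris-HCl pH 7.0, 100 mM NaCl, concentrated to 7.0 mg/mL. IC50 by fluorescence polarization.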

A further assay has as its target T2, human CA-IX (Homo sapiens, UniProt Q16790).
T2 construct: purchased R&D Systems Inc. 2188-CA-010
Kind of assay: Carbonic Anhydrase-IX (CA-IX) Fluorescence Polarization Assay-IC50 Determination. It counts as binding. As to conditions: read-out: CAIX IC50. As for the experimental part:
Carbonic Anhydrase-IX (CA-IX) Fluorescence Polarization Assay-IC50 Determination
Compounds were diluted in DMSO at the concentration of 1 mM, then 50 μM and transferred to a 96-well plate for further dilutions (1:3 dilution, 11 points) in duplicate. Final compound highest concentration in CA-IX FP assay is 1 μM. Assays were conducted in a final volume of 100 μL in 50 mM Tris/HCl (pH 7.6), 100 mM Na2SO4 and 0.005% Tween-20 in a 96-well black assay. plate. […] was used as the tracer. Binding inhibition was determined by pipetting 8 μL of human CA-IX (8 nM, R&D Systems Inc. Cat#2188-CA-010) into assay plate contained 2 μL of compound and 2 μL of tracer (2 nM) in 88 μL of assay buffer. The assay plate was incubated at room temperature for 30 minutes and read in the fluorescence polarization reader (Molecular Devices, Analyst) at 524/45 nm (excitation), 595/60 nm (emission) and 561 nm (bean splitter). […] GraphPad Prism or similar in-house software with the IC50 curve fitting using the four parameter logistic equation.
Background: Fluorescence polarisation rises when a labelled molecule tumbles more slowly, as on binding a larger partner.

Assay [1] has as its target T3, human CA-II (Homo sapiens, UniProt P00918).
T3 construct: purchased Sigma-Aldrich C6165
Kind of assay: Carbonic Anhydrase-II (CA-II) Fluorescence Polarization Tight Binding Assay-Kd Determination. As for the experimental part:
Assays were conducted in a final volume of 100 μL in 50 mM Tris/HCl (pH 7.6), 100 mM Na2SO4 and 0.005% Tween-20 in a 96-well black assay plate. […] The assay plate was
The Kd binding was calculated using GraphPad Prism and Morrison tight binding ligand equation.

The next assay has as its target CAI (Homo sapiens, UniProt P00915). Put plainly: CAI IC50 (no method described). Format: biochemical.
Assay [2] has as its target T3, human CA-II. Kind of assay: Carbonic Anhydrase-II (CA-II) Fluorimetric Assay-IC50 Determination. It counts as biochemical. Put shortly:
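Compounds were tested as an 11-point, 1:3 dilution series in duplicate, with a top final concentration of 1 μM, in 50 mM Tris/HCl pH 7.6, 100 mM Na2SO4 and 0.005% Tween-20. Human CA-II activity was followed as the rate of fluorescein diacetate hydrolysis at 25° C, with excitation at 488 nm and emission at 538 nm.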

Each structure is given as a SMILES string. Read-outs that look alike come from different tables or passages of the source.

CAI, sequence (P00915 whole entry, species assumed): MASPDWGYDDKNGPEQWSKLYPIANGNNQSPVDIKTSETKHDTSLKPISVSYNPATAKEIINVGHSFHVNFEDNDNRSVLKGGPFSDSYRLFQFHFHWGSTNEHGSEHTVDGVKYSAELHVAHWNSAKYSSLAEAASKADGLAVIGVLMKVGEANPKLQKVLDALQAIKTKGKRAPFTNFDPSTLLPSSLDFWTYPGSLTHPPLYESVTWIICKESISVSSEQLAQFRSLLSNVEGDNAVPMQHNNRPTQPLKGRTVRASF
T1 sequence (P22748 19-284 limits assumed): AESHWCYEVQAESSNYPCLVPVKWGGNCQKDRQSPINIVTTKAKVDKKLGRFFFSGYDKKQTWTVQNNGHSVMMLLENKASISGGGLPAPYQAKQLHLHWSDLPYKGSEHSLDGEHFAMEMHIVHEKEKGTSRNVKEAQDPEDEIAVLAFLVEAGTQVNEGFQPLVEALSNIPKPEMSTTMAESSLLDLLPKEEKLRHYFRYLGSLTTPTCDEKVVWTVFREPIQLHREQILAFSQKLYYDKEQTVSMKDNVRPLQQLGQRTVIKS

Consider `NS(=O)(=O)c1ccc(-n2nc(CO)cc2Cc2ccc(Cl)cc2)cc1` [qq-3a, 4-[5-(4-chlorobenzyl)-3-(hydroxymethyl)-1H-pyrazol-1-yl]benzenesulfonamide], for which the IC50 worked out at 284 nM at human CA-IV (read-out: IC50_CAIV) and 13.5 nM at human CA-IX.

As to `CC(C)OC(=O)c1nc(Cc2ccccc2)n(-c2ccc(S(N)(=O)=O)cc2)n1` [Example P-1, Isopropyl 1-[4-(aminosulfonyl)phenyl]-5-benzyl-1H-1,2,4-triazole-3-carboxylate], the Kd at human CA-II [1] (read-out: Kd_CAII) was found to be 0.15 nM. The IC50 at human CA-IV (read-out: IC50_CAIV) was 486 nM; on CAI, 41 nM.

`Cc1cccc(Cc2nc(C)nn2-c2ccc(S(N)(=O)=O)c(F)c2F)c1` [Example Q-1, 2,3-Difluoro-4-[3-methyl-5-(3-methylbenzyl)-1H-1,2,4-triazol-1-yl]benzenesulfonamide]: at human CA-II [2] (69 0.010 nM (so in the source)), the “% printed in column IC50—CAII” value is on record as 0% 69 0.010 nM. Further, the “% printed in column IC50_CAIV” value on human CA-IV (@ 5 uM) turned out to be 51% @ 5 uM. The IC50 against CAI was 4610 nM.

As for `CN(Cc1cc(Cc2ccc(Cl)cc2)n(-c2ccc(S(N)(=O)=O)cc2)n1)C1CCCCC1` [QQ-10], at human CA-IX, the IC50 came to 5.18 nM.

Regarding `COC[C@H](C)NC(=O)c1nc(Cc2ccccc2)n(-c2ccc(S(N)(=O)=O)cc2)n1` [Example R-21, 1-[4-(aminosulfonyl)phenyl]-5-benzyl-N-[(1S)-2-methoxy-1-methylethyl]-1H-124-triazole-3-carboxamide], at human CA-II [2] (CA II Min dose 100 nM, read-out: CAII % Inh @ Min dose), the inhibition at 0.1 µM is 100%. Further, on human CA-II [1] (read-out: CA-II Kd), the Kd is 0.09 nM. At human CA-IV (CA-IV Min dose 200 nM, read-out: CA-IV: % Inh @ Min dose), the inhibition at 0.2 µM stood at 53.6%. Further, the IC50 was found to be 356 nM on human CA-IV (read-out: CA-IV IC50) and 53.3 nM on human CA-IX.

As to `CCCCN(C)Cc1nc(Cc2ccccc2)n(-c2ccc(S(N)(=O)=O)cc2F)n1` [Example G-1b, 4-(5-benzyl-3-{[butyl(methyl)amino]methyl}-1H-1,2,4-triazol-1-yl)-3-fluorobenzenesulfonamide], the IC50 at human CA-IX came to 9.01 nM.

Consider `NS(=O)(=O)c1ccc(-n2ncnc2Cc2ccccc2)cc1` [Example L-1a, 4-(5-benzyl-1H-1,2,4-triazol-1-yl)benzenesulfonamide], for which, at human CA-IX, the IC50 was 35.6 nM.

With `CN(C)[C@H]1CCN(C(=O)c2nc(Cc3ccccc3)n(-c3ccc(S(N)(=O)=O)cc3F)n2)C1` [Example A-1m, 4-(5-benzyl-3-{[(3S)-3-(dimethylamino)pyrrolidin-1-yl]carbonyl}-1H-1,2,4-triazol-1-yl)-3-fluorobenzenesulfonamide], the Kd at human CA-II [1] (read-out: Kd_CAII) was found to be 0.2 nM. For the same compound, the IC50 amounted to 429 nM at human CA-IV (read-out: IC50_CAIV) and 21 nM against CAI.

On to `COCc1nc(Cc2cccc(Br)c2)n(-c2ccc(S(N)(=O)=O)cc2)n1` [f-3g, 4-[5-(3-bromobenzyl)-3-(methoxymethyl)-1H-1,2,4-triazol-1-yl]benzenesulfonamide], for which the IC50 on human CA-IX came to 8.11 nM.

With `CN(CCN1CCOCC1)C(=O)c1nc(Cc2ccccc2)n(-c2ccc(S(N)(=O)=O)cc2F)n1` [Example A-1k, 1-[4-(aminosulfonyl)-2-fluorophenyl]-5-benzyl-N-methyl-N-(2-morpholin-4-ylethyl)-1H-1,2,4-triazole-3-carboxamide], the Kd at human CA-II [1] (read-out: Kd_CAII) was found to be 0.22 nM. The results for the IC50 at human CA-IV (read-out: IC50_CAIV) and against CAI were 148 nM and 23 nM, respectively.
